Data on two molecules can be found in patent EP4671240A1, “SALT CONTAINING AROMATIC RING DERIVATIVE ANTAGONIST, PREPARATION METHOD THEREFOR, AND APPLICATION THEREOF” (Jiangsu Hansoh Pharmaceutical Group Co., Ltd., priority 2023, dated 2024).

Common to all, as to type: in vitro ADME
A short description of data set [1]: Liver microsomal metabolism stability assay (rat). Conditions: compound 1 µM; for half-life at 1 µM: rat liver microsomes 0.5 mg/mL, NADPH/UDPGA, read-out: Rat t1/2; for Rat Remaining rate: rat liver microsomes, 60 min. The method, then:
(§1) The objective of this experiment was to detect the stability of the example compounds in liver microsomes of rats, dogs and humans.
(§2) Formulation of compound working solution: compound stock solution was added to phosphate buffer to a final concentration of 20 µM.
(§3) Dilution was performed with 100 mM phosphate buffer to a final concentration of 0.625 mg/mL.
(§4) NADPH (reduced nicotinamide adenine dinucleotide phosphate) and UDPGA (uridine diphosphate glucuronic acid) were weighed, and 100 mM phosphate buffer was added to a final concentration of 20 mM.
(§5) 1 mg of Alamethicin was weighed, and 200 µL of DMSO was added to formulate a 5 mg/mL solution. Then dilution was performed with phosphate buffer to a final concentration of 50 µg/mL.
(§6) Stop solution: cold acetonitrile containing 100 ng/mL labetalol hydrochloride and 400 ng/mL tolbutamide as internal standards.
(§7) 400 µL of formulated liver microsomes, 25 µL of compound working solution and 25 µL of Alamethicin were added in sequence to a 96-well plate, and the mixture was pre-incubated at 37°C for 10 min. Then 50 µL of formulated NADPH/UDPGA was added to start the reaction and the mixture was incubated at 37°C. The total volume of the reaction system was 500 µL. The final contents of each component are as follows:
(§8) • Instrument: Shimadzu LC-30 AD; • Chromatographic column: XBridge® C18 (50*4.6 mm, 5 µm particle size); • Mobile phase: A: 0.1% formic acid solution, B: methanol • Elution gradient: 0.2-1.6 min 5% A to 95% A, 3.0-3.1 min 95% A to 5% A • Run time: 4.0 min.
(§9) • Instrument: API5500 liquid chromatography-mass spectrometer, AB Sciex; • Ion source: electrospray ionization source (ESI); • Drying gas: N2, temperature 500°C; • Electrospray voltage: 5000 V; • Detection mode: positive ion detection; • Scan mode: Multiple Reaction Monitoring (MRM) mode.
(Microsomes from liver hold many membrane-bound enzymes, among them those of drug oxidation.)

Data set [2] can be described thus: Liver microsomal metabolism stability assay (dog). The following applies: compound 1 µM; for half-life at 1 µM: dog liver microsomes 0.5 mg/mL, NADPH/UDPGA, read-out: Dog t1/2; for Dog Remaining rate: dog liver microsomes, 60 min. How it is done:
as §1, §2, §3, §4, §5, §6, §7, §8, §9

Data set [3] in a line: Liver microsomal metabolism stability assay (human). The following applies: compound 1 µM; for half-life at 1 µM: human liver microsomes 0.5 mg/mL, NADPH/UDPGA, read-out: Human t1/2; for Human Remaining rate: human liver microsomes, 60 min. How it is done:
as §1, §2, §3, §4, §5, §6, §7, §8, §9

The next data set addresses T1, CYP450 2D6 (Homo sapiens, UniProt P10635).
T1 construct: Human liver microsome incubation system was used; from tissue; host or cells: human liver microsomes
Kind of data set: CYP enzyme single-point inhibition assay, 2D6. The following applies: human liver microsomes, single-point method. How it is done:
(§10) Human liver microsome incubation system was used, and the single-point method was used to quickly predict the inhibition on CYP450 enzyme subtypes (1A2, 2C19, 2D6, 3A4-M, and 3A4-T) by compounds.
(§11) For 2.5 mM NADPH, 4.165 mg of NADPH (reduced nicotinamide adenine dinucleotide phosphate) was weighed and 100 mM phosphate buffer was added to a final volume of 2 mL. For 0.25 mg/mL microsomes, 50 µL of 20 mg/mL microsomes was mixed with […] of 100 mM phosphate buffer evenly.
(§12) The test example compounds were weighed, diluted to 10 mM with DMSO, and then diluted to 100 µM with 100 mM phosphate buffer.
(§13) • 1. Liver microsomes (40 µL), substrate (10 µL), and test compound (10 µL) were added to a 96-well plate, and the mixture was pre-incubated for 3 min. • 2. NADPH (40 µL) was added. • 3. At 20 min, acetonitrile stop solution containing internal standard (300 µL) was added. • 4. The mixture was centrifuged and the sample was loaded.

Another data set deals with T2, CYP450 3A4-T (Homo sapiens, UniProt P08684).
T2 construct: Human liver microsome incubation system was used; from tissue; host or cells: human liver microsomes
T2 sequence (P08684 whole entry): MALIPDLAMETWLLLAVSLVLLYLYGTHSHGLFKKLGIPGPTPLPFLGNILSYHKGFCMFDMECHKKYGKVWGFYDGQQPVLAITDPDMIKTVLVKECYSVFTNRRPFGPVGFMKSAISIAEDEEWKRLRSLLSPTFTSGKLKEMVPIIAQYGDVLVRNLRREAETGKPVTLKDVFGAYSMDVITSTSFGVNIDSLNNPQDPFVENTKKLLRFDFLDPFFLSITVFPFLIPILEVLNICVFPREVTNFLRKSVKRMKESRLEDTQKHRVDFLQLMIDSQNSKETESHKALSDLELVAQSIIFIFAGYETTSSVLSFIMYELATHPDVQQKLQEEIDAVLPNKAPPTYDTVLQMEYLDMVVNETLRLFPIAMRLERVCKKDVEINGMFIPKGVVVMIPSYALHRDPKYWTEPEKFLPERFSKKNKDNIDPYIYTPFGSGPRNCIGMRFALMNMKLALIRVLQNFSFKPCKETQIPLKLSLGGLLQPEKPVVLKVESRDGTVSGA
Kind of data set: CYP enzyme single-point inhibition assay, 3A4-T. Conditions: human liver microsomes, single-point method. The method, then:
as §10, §11, §12, §13

Molecules are shown by their SMILES.

T1 sequence (P10635 whole entry): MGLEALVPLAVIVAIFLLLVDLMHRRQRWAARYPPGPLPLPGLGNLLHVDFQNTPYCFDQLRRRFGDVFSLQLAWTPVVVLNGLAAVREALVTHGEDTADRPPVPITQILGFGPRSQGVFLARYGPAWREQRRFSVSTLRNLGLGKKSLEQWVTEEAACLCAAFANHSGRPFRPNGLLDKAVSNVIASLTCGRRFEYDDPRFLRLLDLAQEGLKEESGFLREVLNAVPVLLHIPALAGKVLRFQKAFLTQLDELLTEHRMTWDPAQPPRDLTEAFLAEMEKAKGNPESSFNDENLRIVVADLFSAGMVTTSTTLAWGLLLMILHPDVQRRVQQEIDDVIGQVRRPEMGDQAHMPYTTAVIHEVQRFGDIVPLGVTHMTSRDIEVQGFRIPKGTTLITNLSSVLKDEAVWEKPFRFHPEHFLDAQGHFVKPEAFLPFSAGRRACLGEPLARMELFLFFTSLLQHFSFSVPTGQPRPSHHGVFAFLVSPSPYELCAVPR

The IC50 is the concentration that inhibits the measured activity by half. High values mean a need for much substance, low ones inhibition by little substance. In the case of `CCCCC1=NC2(CCCC2)C(=O)N1Cc1ccc(-c2ccccc2S(=O)(=O)Nc2noc(C)c2Cl)c(COCC)c1` [Example 8, 2-[4-[(2-Butyl-4-oxo-1,3-diazaspiro[4.4]non-1-en-3-yl)methyl]-2-(ethoxymethyl)phenyl]-N-(4-chloro-5-methyl-isoxazol-3-yl)benzenesulfonamide], in data set [1], the half-life at 1 µM was determined as 29.9 min and the “Rat Remaining rate” value is reported as 23.3%. Moreover, in data set [2], the half-life at 1 µM was found to be 28.5 min and the “Dog Remaining rate” value turned out to be 23.6%. In addition, in data set [3], the half-life at 1 µM was 36.5 min and the “Human Remaining rate” value was determined as 32.0%. Besides, the IC50 at CYP450 2D6 was more than 100 µM. In addition, on CYP450 3A4-T, the IC50 was more than 100 µM.

For `[2H]C([2H])(c1ccc(-c2ccccc2S(=O)(=O)Nc2noc(C)c2Cl)c(COCC)c1)N1C(=O)C2(CCCC2)N=C1CCCC` [Example 2, 4'-((2-Butyl-4-oxo-1,3-diazaspiro[4.4]non-1-en-3-yl)methyl-d2)-N-(4-chloro-5-methylisoxazol-3-yl)-2'-(ethoxymethyl)-[1,1'-biphenyl]-2-sulfonamide], in data set [1], the half-life at 1 µM stood at 26.3 min and the “Rat Remaining rate” value was found to be 29.4%. In addition, in data set [2], the half-life at 1 µM was found to be 29.9 min and the “Dog Remaining rate” value was found to be 24.6%. In data set [3], the half-life at 1 µM came out at 38.5 min and the “Human Remaining rate” value was 33.0%. At CYP450 2D6, this molecule displayed an IC50 of more than 100 µM. The molecule also had an IC50 at CYP450 3A4-T of more than 100 µM.
